Earlier results, collected in patent publication US11083740B2, “Cancer therapy” (NED Biosystems, Inc., priority 2013, dated 2021).

Key:
[1] = in vivo
[2] = tested on: hormone refractory PC-3 prostate cancer cells; conditions: PC-3 cells
HUVECs [3] = tested on: HUVECs
[4] = tested on: pancreatic carcinoma cells
[5] = in vivo; remark: listed apart in the source
[6] = in vivo; remark: listed apart in the source
HUVECs [7] = conditions: partially AMPK-dependent
[8] = tested on: cultured bovine granulosa cells; conditions: AMPK-dependent mechanism

## O=C(O)CCCCC1CCSS1 (stereo not drawn) [Alpha-Lipoic Acid, 1,2-dithiolane-3-pentanoic acid]
[1]
  bioavailability when taken with a meal: decreases

## O=c1c(-c2ccc(O)cc2)coc2cc(O)cc(O)c12 [Genistein]
[2]
  IGF-1-stimulated cell growth: significant inhibition

## COc1ccc2[nH]cc(CCNC(C)=O)c2c1 [Melatonin, N-acetyl-5-methoxytryptamine]
HUVECs [3]
  cell proliferation and migration: inhibits
[4]
  VEGF protein secreted and produced: decreases

## CC(C)[C@@H](CC[C@@H](C)[C@H]1CC[C@H]2[C@@H]3[C@H](O)C[C@H]4C[C@@H](NCCCNCCCCN)CC[C@]4(C)[C@H]3CC[C@]12C)OS(=O)(=O)O [Squalamine]
[5]
  oral bioavailability: does not have high oral bioavailability
[6]
  maximum tolerated dose (MTD): 300 mg/m2/day

## CN(C)C(=N)N=C(N)N [Metformin]
HUVECs [7]
  proliferation, migration, and MMP-2 and -9 expression: strongly inhibited
[8]
  response to IGF1: reducing cell growth, protein synthesis, MAPK3/1, and P90RSK phosphorylation

## [Met(5)]-enkephalin [Opioid Growth Factor [Met(5)]-enkephalin]
50 μg/kg injected subcutaneously twice daily
  toxicity of metronomic dosing: no toxicity
30-minute intravenous infusion once or twice weekly
  maximum tolerated dose: 0.25 mg/kg
